Values joined by “and” are separate entries in the source; they are usually repeats but may differ in a detail not shown here. Identical values can stand only once. ± gives the expanded uncertainty stated by the source.
Settings: Fluid (supercritical or subcritical phases), Hot wire method

FC(F)(F)/C=C/Cl [(E)-1-chloro-3,3,3-trifluoroprop-1-ene]
Settings | thermal conductivity
451.44 K, 4091 kPa | 0.03884 W/m/K
451.45 K, 3691 kPa | 0.03 ± 0.014 W/m/K
451.45 K, 4479 kPa | 0.04701 ± 0.011 W/m/K and 0.04717 ± 0.0036 W/m/K
451.46 K, 3650 kPa | 0.02974 W/m/K
451.47 K, 3830 kPa | 0.03201 ± 0.014 W/m/K
451.47 K, 4579 kPa | 0.04622 W/m/K
451.47 K, 4580 kPa | 0.04624 W/m/K
451.48 K, 3651 kPa | 0.02988 ± 0.011 W/m/K
451.48 K, 3831 kPa | 0.03192 ± 0.014 W/m/K
451.5 K, 3272 kPa | 0.02692 ± 0.003 W/m/K
451.5 K, 3273 kPa | 0.02709 ± 0.0011 W/m/K
451.5 K, 4908 kPa | 0.04557 ± 0.013 W/m/K and 0.04553 ± 0.014 W/m/K
451.51 K, 3508 kPa | 0.02853 ± 0.0059 W/m/K
451.51 K, 4024 kPa | 0.03641 W/m/K
451.51 K, 4025 kPa | 0.03631 W/m/K
451.52 K, 4479 kPa | 0.04791 W/m/K
451.52 K, 5208 kPa | 0.04584 ± 0.013 W/m/K and 0.04601 ± 0.0073 W/m/K
451.53 K, 4479 kPa | 0.04799 ± 0.024 W/m/K
451.54 K, 3691 kPa | 0.03 ± 0.007 W/m/K and 0.03016 ± 0.0067 W/m/K
451.54 K, 4580 kPa | 0.04656 W/m/K
451.55 K, 4580 kPa | 0.04665 W/m/K
451.56 K, 3650 kPa | 0.02992 ± 0.014 W/m/K
451.57 K, 3650 kPa | 0.02995 ± 0.013 W/m/K
451.57 K, 3831 kPa | 0.0321 W/m/K
451.58 K, 3831 kPa | 0.0323 W/m/K
451.59 K, 4908 kPa | 0.04582 ± 0.0093 W/m/K and 0.04575 ± 0.011 W/m/K
451.6 K, 5208 kPa | 0.04598 ± 0.007 W/m/K and 0.04588 ± 0.0096 W/m/K
451.61 K, 3273 kPa | 0.02708 ± 0.0027 W/m/K
451.61 K, 4734 kPa | 0.046 W/m/K
451.62 K, 3273 kPa | 0.027 ± 0.0029 W/m/K
451.62 K, 3508 kPa | 0.02859 ± 0.011 W/m/K
451.62 K, 3509 kPa | 0.02863 ± 0.0068 W/m/K
451.62 K, 4579 kPa | 0.04727 W/m/K
451.62 K, 4580 kPa | 0.0472 W/m/K
451.62 K, 4734 kPa | 0.0461 W/m/K
451.64 K, 3691 kPa | 0.03032 ± 0.012 W/m/K and 0.03035 ± 0.012 W/m/K
451.66 K, 2992 kPa | 0.02577 ± 0.0016 W/m/K
451.67 K, 2990 kPa | 0.02601 ± 0.0012 W/m/K
451.67 K, 3650 kPa | 0.02999 ± 0.012 W/m/K
451.67 K, 4909 kPa | 0.04592 W/m/K
451.68 K, 4909 kPa | 0.04602 W/m/K
451.68 K, 5207 kPa | 0.04609 ± 0.01 W/m/K
451.69 K, 5207 kPa | 0.04582 ± 0.011 W/m/K
451.7 K, 4580 kPa | 0.04772 ± 0.02 W/m/K
451.7 K, 4734 kPa | 0.04631 W/m/K
451.71 K, 4580 kPa | 0.04774 ± 0.02 W/m/K
451.71 K, 4734 kPa | 0.04636 W/m/K
451.72 K, 3272 kPa | 0.02716 ± 0.0037 W/m/K
451.73 K, 2617 kPa | 0.02492 ± 0.0051 W/m/K and 0.02475 ± 0.0052 W/m/K
451.73 K, 3273 kPa | 0.02707 ± 0.004 W/m/K
451.74 K, 3509 kPa | 0.02878 ± 0.011 W/m/K and 0.02877 ± 0.011 W/m/K
451.76 K, 4908 kPa | 0.04609 W/m/K
451.76 K, 4909 kPa | 0.04628 W/m/K
451.77 K, 3650 kPa | 0.0303 ± 0.0098 W/m/K
451.77 K, 5207 kPa | 0.0462 ± 0.013 W/m/K
451.77 K, 5208 kPa | 0.04621 ± 0.013 W/m/K
451.78 K, 2992 kPa | 0.02586 ± 0.0012 W/m/K
451.78 K, 3650 kPa | 0.03036 ± 0.011 W/m/K
451.79 K, 2166 kPa | 0.02402 ± 0.0026 W/m/K
451.79 K, 2992 kPa | 0.02587 ± 0.0025 W/m/K
451.8 K, 2167 kPa | 0.02395 ± 0.0041 W/m/K
451.8 K, 4735 kPa | 0.0468 W/m/K
451.85 K, 3273 kPa | 0.02717 ± 0.0049 W/m/K and 0.02719 ± 0.0049 W/m/K
451.85 K, 3509 kPa | 0.02883 ± 0.014 W/m/K
451.86 K, 1669 kPa | 0.0235 ± 0.0018 W/m/K
451.86 K, 1672 kPa | 0.02345 ± 0.0013 W/m/K
451.87 K, 2617 kPa | 0.02483 ± 0.0014 W/m/K
451.87 K, 2618 kPa | 0.02473 ± 0.0015 W/m/K
451.89 K, 4734 kPa | 0.0473 W/m/K
451.89 K, 4735 kPa | 0.04729 W/m/K
451.91 K, 2992 kPa | 0.02598 ± 0.0039 W/m/K
451.92 K, 2991 kPa | 0.02605 ± 0.005 W/m/K
451.93 K, 5207 kPa | 0.04646 ± 0.017 W/m/K

From the NIST ThermoML archive (doi:10.1021/acs.jced.7b00106)
